Experimental data as given in patent US20230141863A1, “Small Molecule Inhibitors Targeting the Sodium Channel Tamoxifen Receptor and Uses Thereof” (Northwestern University, priority 2021, published 2023).

System: T1, endogenous voltage-gated sodium channels expressed in murine DRG neurons
T1 construct: other: waiting for 5 minutes after removal; ND-Tam potency against DRG INa (IC50); other: DRG neurons, −60 mV holding potential; other: 3 μM ND-Tam treatment; other: DR
Assay: Whole cell voltage clamp of endogenous sodium currents (INa) in cultured DRG sensory neurons
Type: cell-based, mouse
Protocol: FIG. 1. Tamoxifen metabolites inhibit endogenous voltage-gated sodium channels expressed in murine DRG neurons. A) DIC and fluorescence images of voltage clamped DRG neuron isolated and cultured from an Nav1.8-tomato mouse. Continuity with the patched neuron is indicted by the GFP (Alexa Fluor 488 dye 1 nM) loaded into the glass patch electrode. B) Top, exemplar sodium currents (INa) recorded in control saline and two concentrations of N-desmethyl tamoxifen (ND-Tam) from a voltage-clamped DRG neuron. INa was activated by 0.2 Hz train of 50 ms depolarizations to −10 mV from −100 mV holding potential. Bottom, time course of peak INa inhibition during control conditions and after 5 minutes of extracellular ND-Tam treatment. C) Resulting drug concentration-INa inhibition relationship for ND-Tam fit to the Hill equation. Open symbols represent responses from individual cells and filled symbols represent average response per concentration. Error is equal to S.E.M. (n=11) D) A comparison of the percent INa recovery after 3-10 μM ND-Tam or 1 mM carbamazepine (CBZ) inhibition. INa recovery was assessed after 5 minutes in control saline post drug exposure. Fewer INa recovered from ND-Tam exposure compared to CBZ exposure, 14.3±5.4% and 47.2±9.6%, respectively, and was statistically significant (P=0.03). Error is equal to S.E.M. and the number of cells tested per treatment group is indicated within the parentheses.
Previously, a unique receptor site for tamoxifen analogues within the prokaryotic sodium channel isolated form Magnetococcus marinus (NavMs)^36 (Sula et al) was crystallographically identified. Because drug occupancy of this receptor caused long lasting inhibition of the NavMs INa, the inventors wondered if these properties would translate into effects against sensory neuron Na s which transmit pain signals. Accordingly, =the potency of ND-Tam and 4OH-Tam was tested against endogenously expressed Na s in cultured DRG sensory neurons isolated from Nav1.8-tdTomato mice by conducting whole cell voltage clamp recordings (FIG. 1A, B). Sodium currents were activated by a 0.2 Hz train of −10 mV depolarizations from a holding potential of −100 mV. The externally applied drug effect was determined after three to five minutes of application of each drug concentration (FIG. 1B). […] As discussed in the introduction, total DRG INa is conducted by the Nav1.1, Nav1.6, Nav1.7, Nav1.8 and Nav1.9 subtypes. To determine if there is any specificity in the potency of tamoxifen analogues against Nav subtypes, human orthologues were heterologously expressed in cell lines (HEK and CHO co-expressing hb1 subunits), and conducted voltage-clamp experiments, as previously performed in the DRG neurons.
Dorsal root ganglia were isolated using a modified version of the previously described protocol (PMID: 26864470). All animal procedures were approved by the Institutional Animal Care and Use Committee at the Feinberg Medical School, Northwestern University. The spinal columns of 4-6-week-old […] or Nav1.8-Tomato mice (Nav1.8-Td) were removed and DRG neurons from all spinal levels were isolated for primary culture (PMID: 33827672, PMID: 31351964). The collected DRGs, containing both neuronal and non-neuronal cells, were acutely dissociated in DMEM with collagenase IV (2 mg/mL) for 30 minutes, followed by papain (25 U/mL) for 30 minutes. The cells were then triturated, filtered through a 40 μm cell strainer to remove non-dissociated cells, and washed with DMEM. The DRGs were resuspended in 70 μL of pre-warmed growth medium (DMEM F12+Glutamax supplemented with 0.5% FBS, 0.5% penicillin/streptomycin, 1% N-2 supplement, and β-NGF ([…]) added on the day of use) and plated on poly-l-lysine (10 mg/mL) and laminin (25 μg/mL) prepared coverslips. The DRGs were incubated at 37° C. for 2-4 hours before more growth medium was added to the wells. […]

CC/C(=C(\c1ccccc1)c1ccc(OCCNC)cc1)c1ccccc1 [ND-Tam, 2-[4-[(Z)-1,2-diphenylbut-1-enyl]phenoxy]-N-methylethanamine]
block of the total INa (3 μM ND-Tam treatment): ≈ 45%
change in the half-maximal activation of conductance (GV1/2) (3 μM ND-Tam treatment): No change
IC50 (DRG neurons, −100 mV holding potential, 0.2 Hz train of −10 mV depolarizations, read-out: half maximal potency of INa inhibition (IC50)): 1700 nM
voltage-dependence of inactivation (V1/2) after drug treatment (ND-Tam (3 μM), control −47.6±0.4 mV): −51.9±0.4 mV
half-maximal conductance-voltage relationship (V1/2) (ND-Tam conditions (3 μM), control −38.3±0.3 mV): −37.7±0.4 mV
shift in voltage dependence of inactivation (after 3 μM ND-Tam treatment, P=0.01): −8 mV
inhibition of sodium currents recorded from DRG neurons (in words) (tamoxifen analogs and fragments, FIG. 7B): inhibited sodium currents
INa that did not recover after removing drug from the bath (waiting for 5 minutes after removal): 86±5%
increase in potency when neuron membranes were held at more depolarizing potentials (−40, −60 and −100 mV holding potentials): 15-44 ×
